Values quoted from earlier work as cited in patent publication US20250230139A1, “Novel Process and Intermediate for the Preparation of Apalutamide” (BDR Lifesciences Private Limited, priority 2022, published 2025).

Key:
[1] = strong base (pH>11)
[2] = acidic carboxamide moiety
prostate cancer = settings: mouse xenograft models of prostate cancer
[3] = powder

CNC(=O)c1ccc(N2C(=S)N(c3cnc(C#N)c(C(F)(F)F)c3)C(=O)C23CCC3)cc1F [Apalutamide, 4-[7-[6-cyano-5-(trifluoromethyl)pyridin-3-yl]-8-oxo-6-thioxo-5,7-diazaspiro[3.4]octan-5-yl]-2-fluoro-N-methylbenzamide]
stability to strong base [1]: unstable
dissociation constant pKa [2]: 9.7
solubility in aqueous media (aqueous media over a wide range of pH values): practically insoluble
solubility in organic solvents (organic solvents): practically insoluble to very soluble
apoptosis (prostate cancer): increased apoptosis
tumor cell proliferation (prostate cancer): decreased tumor cell proliferation
tumor volume (prostate cancer): decreased tumor volume
hygroscopicity [3]: non-hygroscopic
